Reference: PubChem BioAssay (NCI)
Where “and” joins values, the source holds several entries; their conditions need not be identical. Equal values may be shown once.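 Dose response: 5 concentrations. Exposure: 48 h. Format: 96-well plates. Endpoint: linear interpolation; highest concentration if not reached. GI50: concentration for 50% inhibition of growth. TGI denotes the concentration required for complete inhibition of growth.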

Tests used:
Assay in all cases: growth of human tumour cells (NCI), 48 h
SN12C renal = test system: SN12C renal
SF-268 CNS = test system: SF-268 CNS
MALME-3M melanoma = test system: MALME-3M melanoma
OVCAR-4 ovarian = test system: OVCAR-4 ovarian
A498 renal = test system: A498 renal
CCRF-CEM leukemia = test system: CCRF-CEM leukemia
CAKI-1 renal = test system: CAKI-1 renal
HL-60(TB) leukemia = test system: HL-60(TB) leukemia
SR leukemia = test system: SR leukemia
MDA-MB-231 breast = test system: MDA-MB-231 breast

## Cc1ccc(S(=O)(=O)N[C@H](C(=O)O)c2ccccc2)cc1
SN12C renal
  TGI: > 100 µM
SF-268 CNS
  TGI: > 100 µM
MALME-3M melanoma
  TGI: > 100 µM
OVCAR-4 ovarian
  TGI: > 100 µM
A498 renal
  TGI: > 100 µM
CCRF-CEM leukemia
  TGI: > 100 µM
CAKI-1 renal
  TGI: > 100 µM
HL-60(TB) leukemia
  TGI: > 100 µM

## CN(C)c1ccc2c(=O)c3ccccc3oc2n1
SN12C renal
  TGI: > 100 µM
SF-268 CNS
  TGI: > 100 µM
MALME-3M melanoma
  TGI: > 100 µM
OVCAR-4 ovarian
  TGI: > 100 µM
CCRF-CEM leukemia
  TGI: > 100 µM
CAKI-1 renal
  TGI: > 100 µM
HL-60(TB) leukemia
  TGI: > 100 µM

## O=C(Nc1ccccc1-c1n[nH]c(=S)[nH]c1=O)C(F)(F)F
SN12C renal
  TGI: > 100 µM
SR leukemia
  TGI: > 100 µM
SF-268 CNS
  TGI: > 100 µM
MALME-3M melanoma
  TGI: > 100 µM
OVCAR-4 ovarian
  TGI: > 100 µM
CCRF-CEM leukemia
  TGI: > 100 µM
CAKI-1 renal
  TGI: > 100 µM

## CCOc1ccccc1NC(=O)CC1C(=O)Nc2ccccc2S1=O (centres undefined)
SN12C renal
  TGI: > 100 µM
SR leukemia
  TGI: > 100 µM
SF-268 CNS
  TGI: > 100 µM
MALME-3M melanoma
  TGI: > 100 µM
OVCAR-4 ovarian
  TGI: > 100 µM
A498 renal
  TGI: > 100 µM
CCRF-CEM leukemia
  TGI: > 100 µM
CAKI-1 renal
  TGI: > 100 µM
HL-60(TB) leukemia
  TGI: > 100 µM

## Clc1ncnc(Cl)c1Cl
SN12C renal
  TGI: > 100 µM
SR leukemia
  TGI: > 100 µM
MDA-MB-231 breast
  TGI: > 100 µM
SF-268 CNS
  TGI: > 100 µM
MALME-3M melanoma
  TGI: > 100 µM
OVCAR-4 ovarian
  TGI: > 100 µM
CCRF-CEM leukemia
  TGI: > 100 µM
CAKI-1 renal
  TGI: > 100 µM

## CS/C(=N\C(=S)N(C)C)N(c1ccccc1)c1nc(=[N+](C)C)ss1
SN12C renal
  TGI: 37.9 µM
SR leukemia
  TGI: 24.6 µM
SF-268 CNS
  TGI: 26.4 µM
MALME-3M melanoma
  TGI: 7.44 µM
OVCAR-4 ovarian
  TGI: 24.7 µM
A498 renal
  TGI: 7.04 µM
CCRF-CEM leukemia
  TGI: 8.45 µM
CAKI-1 renal
  TGI: 80.2 µM
HL-60(TB) leukemia
  TGI: 5.98 µM

## O=C(/C=C/c1ccc(OCCCOc2ccc(/C=C/C(=O)c3ccccc3)cc2)cc1)c1ccccc1
SN12C renal
  TGI: > 100 µM
SR leukemia
  TGI: > 100 µM
SF-268 CNS
  TGI: > 100 µM
MALME-3M melanoma
  TGI: > 100 µM
OVCAR-4 ovarian
  TGI: > 100 µM
A498 renal
  TGI: > 100 µM
CCRF-CEM leukemia
  TGI: > 100 µM
HL-60(TB) leukemia
  TGI: > 100 µM

## COc1ccc(OC)c(/C=N/NC(=O)Cc2csc3nc(-c4ccc(Br)cc4)cn23)c1
SN12C renal
  GI50: 20.7 µM
  TGI: 49.4 µM
MDA-MB-231 breast
  GI50: 16.4 µM
  TGI: 41.2 µM
SF-268 CNS
  GI50: > 100 µM
  TGI: > 100 µM
OVCAR-4 ovarian
  GI50: 28.4 µM
  TGI: > 100 µM
CCRF-CEM leukemia
  GI50: 9.59 µM
  TGI: > 100 µM
CAKI-1 renal
  GI50: 12.6 µM
  TGI: 34.2 µM

## CC[C@]1(O)CC(OC2CC(N(C)C)C(O)C(C)O2)c2c(cc3c(c2O)C(=O)c2c(O)cccc2C3=O)[C@@H]1C(=O)OC (some centres undefined)
SN12C renal
  TGI: 6.85 µM
MDA-MB-231 breast
  TGI: 4.2 µM
SF-268 CNS
  TGI: 2.2 µM
MALME-3M melanoma
  TGI: 1.01 µM
OVCAR-4 ovarian
  TGI: 1.49 µM
A498 renal
  TGI: 1.13 µM
CCRF-CEM leukemia
  TGI: 3.39 µM
CAKI-1 renal
  TGI: 0.377 µM

## COc1ccc(C(=O)c2cc(OC)c(OC)c(OC)c2)cc1
SN12C renal
  TGI: > 100 µM
SR leukemia
  TGI: 4.49 µM
MDA-MB-231 breast
  TGI: > 100 µM
SF-268 CNS
  TGI: > 86.8 µM
MALME-3M melanoma
  TGI: > 100 µM
OVCAR-4 ovarian
  TGI: > 100 µM
CCRF-CEM leukemia
  TGI: > 100 µM
CAKI-1 renal
  TGI: > 88.1 µM
HL-60(TB) leukemia
  TGI: 13.2 µM

## N#Cc1ccccc1NC(=O)/C(=N\N)C(C(=O)c1ccncc1)C1OC(=O)c2ccccc21 (centres undefined)
SN12C renal
  TGI: > 100 µM
SR leukemia
  TGI: > 100 µM
SF-268 CNS
  TGI: > 100 µM
MALME-3M melanoma
  TGI: > 100 µM
OVCAR-4 ovarian
  TGI: > 100 µM
CCRF-CEM leukemia
  TGI: > 100 µM
HL-60(TB) leukemia
  TGI: > 100 µM

## COc1ccccc1/C=C(\C#N)c1ccccc1
SN12C renal
  TGI: > 100 µM
SR leukemia
  TGI: 48.8 µM
SF-268 CNS
  TGI: > 100 µM
OVCAR-4 ovarian
  TGI: > 100 µM
A498 renal
  TGI: 66.1 µM
CCRF-CEM leukemia
  TGI: 55.2 µM
CAKI-1 renal
  TGI: > 100 µM

## Cc1ccc(NC(=O)c2cc3cc(N=Nc4ccc(Br)cc4)ccc3oc2=O)cc1
SN12C renal
  TGI: > 100 µM
SR leukemia
  TGI: > 100 µM
SF-268 CNS
  TGI: > 100 µM
MALME-3M melanoma
  TGI: > 100 µM
OVCAR-4 ovarian
  TGI: > 100 µM
A498 renal
  TGI: > 100 µM
CAKI-1 renal
  TGI: > 100 µM
HL-60(TB) leukemia
  TGI: > 100 µM

## Cc1ccc(S(=O)(=O)c2c(N)c3nc4ccccc4n3c3nc4ccccc4nc23)cc1
SN12C renal
  TGI: > 100 µM
SR leukemia
  TGI: > 100 µM
SF-268 CNS
  TGI: > 100 µM
MALME-3M melanoma
  TGI: > 100 µM
OVCAR-4 ovarian
  TGI: > 100 µM
CCRF-CEM leukemia
  TGI: > 100 µM
CAKI-1 renal
  TGI: > 100 µM

## N=C(N)c1ccc(OCc2cccc(COc3ccc(C(=N)N)cc3)c2)cc1
SN12C renal
  GI50: 2.68 µM
  TGI: 13.1 µM
MDA-MB-231 breast
  GI50: 4.09 µM
  TGI: 15.9 µM
SF-268 CNS
  GI50: 5.53 µM
  TGI: 18.5 µM
MALME-3M melanoma
  GI50: 1.77 µM
  TGI: 6.01 µM
OVCAR-4 ovarian
  GI50: 14.1 µM
  TGI: 99.6 µM
CAKI-1 renal
  GI50: 11.4 µM
  TGI: 27.2 µM

## O=C1[C@@H]2C(c3ccccc3Br)=NO[C@@H]2C(=O)N1c1ccc(Cc2ccc(N3C(=O)[C@H]4C(c5ccccc5Br)=NO[C@H]4C3=O)cc2)cc1
SN12C renal
  TGI: > 100 µM
SF-268 CNS
  TGI: > 100 µM
MALME-3M melanoma
  TGI: > 100 µM
OVCAR-4 ovarian
  TGI: > 100 µM
A498 renal
  TGI: > 100 µM
CCRF-CEM leukemia
  TGI: > 100 µM
CAKI-1 renal
  TGI: > 100 µM
HL-60(TB) leukemia
  TGI: > 100 µM

## COc1cc(C2c3[nH]c4ccccc4c3C[C@H]3COC(=O)N23)cc(OC)c1OC (some centres undefined)
SN12C renal
  GI50: 0.0471 µM
  TGI: > 100 µM
SF-268 CNS
  GI50: < 0.01 µM
  TGI: > 100 µM
MALME-3M melanoma
  GI50: < 0.01 µM
  TGI: > 100 µM
OVCAR-4 ovarian
  GI50: 0.507 µM
  TGI: > 100 µM
A498 renal
  GI50: < 0.01 µM
CCRF-CEM leukemia
  TGI: 0.0789 µM
CAKI-1 renal
  GI50: < 0.01 µM
  TGI: > 100 µM
HL-60(TB) leukemia
  GI50: < 0.01 µM
  TGI: 0.0961 µM and < 0.01 µM

## O=C(Nc1ccc(Cl)cc1Cl)C1C(=O)N(c2ccc(Cl)cc2Cl)C(=O)/C1=N\Nc1ccc([N+](=O)[O-])cc1[N+](=O)[O-] (centres undefined)
SN12C renal
  TGI: > 100 µM
SF-268 CNS
  TGI: > 100 µM
MALME-3M melanoma
  TGI: > 100 µM
OVCAR-4 ovarian
  TGI: > 100 µM
A498 renal
  TGI: > 100 µM
CCRF-CEM leukemia
  TGI: > 100 µM
CAKI-1 renal
  TGI: > 100 µM
HL-60(TB) leukemia
  TGI: > 100 µM

## CCOC(=O)c1c2c(c(O)c3ccccc3c(O)n(Cc3ccc(OC)cc3)c1C)C(=O)C=CC2=O
SN12C renal
  GI50: > 100 µM
  TGI: > 100 µM
MDA-MB-231 breast
  GI50: > 100 µM
  TGI: > 100 µM
SF-268 CNS
  GI50: > 100 µM
  TGI: > 100 µM
MALME-3M melanoma
  GI50: > 100 µM
  TGI: > 100 µM
OVCAR-4 ovarian
  GI50: > 100 µM
  TGI: > 100 µM
A498 renal
  GI50: > 100 µM
  TGI: > 100 µM
CAKI-1 renal
  GI50: > 100 µM
  TGI: > 100 µM

## COC(=O)C1=C(c2ccc(OC)c(OC)c2)OC(c2ccc(OC)c(OC)c2)C1 (centres undefined)
SN12C renal
  TGI: > 100 µM
SR leukemia
  TGI: > 100 µM
SF-268 CNS
  TGI: > 100 µM
MALME-3M melanoma
  TGI: 69.3 µM
OVCAR-4 ovarian
  TGI: > 100 µM
A498 renal
  TGI: 46.9 µM
CCRF-CEM leukemia
  TGI: > 100 µM
HL-60(TB) leukemia
  TGI: 44.6 µM

## C/C(CN1C(=O)c2ccccc2C1=O)=N\NS(=O)(=O)c1ccc(C)cc1
SN12C renal
  TGI: > 100 µM
SR leukemia
  TGI: > 100 µM
MALME-3M melanoma
  TGI: > 100 µM
OVCAR-4 ovarian
  TGI: > 100 µM
A498 renal
  TGI: > 100 µM
CCRF-CEM leukemia
  TGI: > 100 µM
CAKI-1 renal
  TGI: > 100 µM
HL-60(TB) leukemia
  TGI: > 100 µM

## C[C@@H]1COCCN1c1cc(C2([S@](C)(=N)=O)CC2)nc(-c2ccnc3[nH]ccc23)n1
SN12C renal
  GI50: 5.04 µM and 9.13 µM
  TGI: > 100 µM
MDA-MB-231 breast
  GI50: 7.28 µM and 7.53 µM
  TGI: > 100 µM
SF-268 CNS
  GI50: 7.1 µM and > 10 µM
  TGI: > 100 µM
MALME-3M melanoma
  GI50: 8.22 µM and 6.49 µM
  TGI: 45.1 µM and > 10 µM
OVCAR-4 ovarian
  GI50: 2.27 µM and 3.62 µM
  TGI: 40.9 µM and > 10 µM
A498 renal
  GI50: 0.43 µM and 1.27 µM
  TGI: 3.71 µM and 8.78 µM
CCRF-CEM leukemia
  GI50: 1.21 µM and 1.11 µM
  TGI: > 29 µM
CAKI-1 renal
  GI50: 6.06 µM and 4.17 µM
  TGI: 75.9 µM and > 10 µM
HL-60(TB) leukemia
  GI50: 1.95 µM and 3.39 µM
  TGI: 12.8 µM and > 10 µM
